# Data reported in patent US20210252159A1, “CONJUGATES OF CARTILAGE-HOMING PEPTIDES” (priority 2018, published 2021).
# Legend:
# [1] = Comparison of joint retention time among radiolabeled peptides (QWBA, knee and IVD); format: in vivo; parameters: Peptide Signal Retention in Knee / Peptide Signal Retention in IVD: unit not given here
# Procedure: Frozen carcasses were allowed to off gas hexane overnight at −20° and then embedded in chilled 2% carboxymethylcellulose (Sigma Aldrich) and sectioned sagittally at a thickness of 40 μm on an H/I Bright 8250 Cryostat (Hacker Instruments). Radioactive control guides were drilled into each block to verify even cutting depth along the length of the section. The radioactive guide consisted of ^14C-Glycine (American Radiolabeled Chemicals, “ARC”) at 0.5 uCi/ml in 0.5% BSA (Sigma Aldrich) in PBS. Sections were collected onto 4-inch wide tape (Scotch 821, ULINE) at 2-4 depths to sample approximately 30 tissues with particular focus on the knees and spine. Collected sections were freeze dried in the cryostat for 48-72 hours then mounted on sturdy paper and covered with a single protective layer of cellophane (Reynolds Food Service Film). Mounted sections were exposed to phosphor imager plates (Raytest) along with a radioactive standard Curve (1465-PL, ARC) for 7-days, scanned on a Raytest CR-35 at “25 μm sensitive” setting.
# Quantification of the radioactivity detected in WBA samples was evaluated by measuring the pixel density/mm^2 (“SI”: Signal Intensity/Area−background) using AIDA Image Analyzer v 5.1 Whole Body Autoradiography Professional software (Raytest). Regions of interest (ROIs) were drawn manually around the entire visible tissue, comparing the sectioned sample to the autoradiogram. For quantification, all visible knee or IVD (intervertebral disc) tissues for one rodent across all collected sections were measured and averaged together to generate one knee or IVD value per animal. Typically were sampled 1-2 knee values (from femoral and tibial cartilage) per 1-2 sections per animal and 3-10 IVD per 1-2 sections per animal. To collect quantified values for other tissues, ROIs were drawn around blood in the heart ventricle, spinotrapezius muscle, the liver, or the kidney (including cortex and medulla) in all sections in which the tissue was observed and then averaged to yield one value per tissue per animal.
# Data were presented as nmol of compound per gram of tissue. The commercial standard strips co-exposed with each WBA sample set were calibrated so that a known amount of radioactive counts per minute (CPM) per gram of tissue, determined by liquid scintillation counting (LSC), corresponded to the measured WBA SI at 11 standard strip concentration data points. The regression line of the log 10 transformed WBA signal intensity plotted against the log 10 transformed CPM/g gave a linear range of 1×10^5 to 7.5×10^7 WBA SI, corresponding to 6.3 nCi/g to 3.3 μCi/g. The log 10 concentration of radioactivity in each tissue (CPM/g) was interpolated from the standard curve, converted to linear values, and translated from CPM/g to uCi/g by interpolation against an LSC CPM to μCi standard curve. Uptake (nmol of compound/g of tissue) was determined by dividing the μCi/g tissue by the μCi/nmol specific activity of the peptide.
# Peptide(SEQ ID NO: 105) was dosed at 57-60 nmol. Peptide(SEQ ID NO: 103) was dosed at 130 nmol. Peptide(SEQ ID NO: 184) was dosed at 150 nmol. […] It should be noted that detection of retention is based on an assay that detects radiolabeling of the N-terminus of each of the tested conjugates, thus decrease in signal over time may be due not only to peptide diffusion back out of the cartilage but also aminopeptidase-mediated removal of N-terminal amino acid, general peptide cleavage, or other mechanisms. Results as measured by QWBA methods described herein are shown in Tables 6 and 7 below and FIG. 11.
# [2] = Resistance to chemical reduction (50 mM DTT, LC-MS); format: physicochemical; details: 50 mM DTT for 60 minutes at room temperature
# Procedure: The synthetically produced peptides were then analyzed side-by-side with peptides produced in the recombinant expression system as described above in EXAMPLE 1.
# [3] = Rat CIA biodistribution study (QWBA); format: in vivo; details: CIA rats
# Procedure: 50 uCi, 400 nmol of each compound was given intravenously (IV) through the tail vein and allowed to circulate 1 hour, 3 hours, or 24 hours. Rats were euthanized by CO2 asphyxiation, shaved, and frozen in dry ice chilled hexane. QWBA was performed and quantified as described.
# Frozen carcasses were allowed to off gas hexane overnight at −20° and then embedded in chilled 2% carboxymethylcellulose (Sigma Aldrich) and sectioned sagittally at a thickness of 40 μm on an H/I Bright 8250 Cryostat (Hacker Instruments). Radioactive control guides were drilled into each block to verify even cutting depth along the length of the section. […]
# (§1) Quantification of the radioactivity detected in WBA samples was evaluated by measuring the pixel density/mm^2 (“SI”: Signal Intensity/Area−background) using AIDA Image Analyzer v 5.1 Whole Body Autoradiography Professional software (Raytest). […] For quantification, all visible knee or IVD (intervertebral disc) tissues for one rodent across all collected sections were measured and averaged together to generate one knee or IVD value per animal. […] To collect quantified values for other tissues, ROIs were drawn around blood in the heart ventricle, spinotrapezius muscle, the liver, or the kidney (including cortex and medulla) in all sections in which the tissue was observed and then averaged to yield one value per tissue per animal. […]
# [4] = Immunohistochemistry of knee and ankle sections with anti-peptide(SEQ ID NO: 105) and anti-Dex antibodies; format: in vivo, C57/Bl6 mice; details: mice, 100 nmol IV, three hours
# Description: Immunohistochemistry methods were developed to detect peptide(SEQ ID NO: 105) and dexamethasone in cartilage of joints using a generated rabbit polyclonal anti-peptide(SEQ ID NO: 105) antibody and a commercially available anti-Dex antibody (Abcam, ab35000). Standard immunization methods were used to generate the anti-peptide(SEQ ID NO: 105) polyclonal antibody, which increases the immunogenicity of the dosed material and are not representative of potential immunogenicity of the unmodified peptide or therapeutic candidate molecules. To produce the immunogen for peptide(SEQ ID NO: 105) antibody generation, peptide(SEQ ID NO: 105) was conjugated to keyhole limpet hemocyanin (KLH) using ImjectTMmcKLH. Peptide(SEQ ID NO: 105)-KLH was administered as part of a pool of other KLH-conjugated peptides emulsified with Freund's complete adjuvant and administered to New Zealand White Rabbits following a standard schedule. The polyclonal antibody was purified from the serum using a HiTrap® mAb Select cartridge (GE Healthcare). Western blot was used to confirm antibody binding to the peptide. […]
# [5] = Biodistribution in mice of stable peptide-TAA conjugate by whole body autoradiography (QWBA); format: in vivo; details: 100 nmol IV, 3 hours and 24 hours
# Procedure: Peptide(SEQ ID NO: 105)-^14C-Cys-TAA (38, the radiolabeled conjugate prepared in EXAMPLE 7) (“peptide(SEQ ID NO: 105)-^14C-Cys” is disclosed as SEQ ID NO: 512) or ^14C-Cys-TAA was resuspended in 5% DMSO in water. The amount of radioactivity per μ1 of solution was measured using liquid scintillation counting (LSC). Each compound was administered intravenously to mice at a dose of 12.4 μCi (100 nmol) and allowed to circulate for the designated time intervals. The mice were then humanely euthanized and carcasses were frozen in dry ice chilled hexane. QWBA was performed and quantified as described. […]
# as §1
substance,measurement,setting,value
GSGVPINVRCRGSRDCLDPCRRAGMRFGRCINSRCHCTP [peptide(SEQ ID NO: 105)],Peptide Signal Retention in IVD,[1]; 0.08 Hours,44.42
same,Peptide Signal Retention in Knee,[1]; 0.08 Hours,91.00
same,Peptide Signal Retention in IVD,[1]; 0.5 Hours,101.41
same,Peptide Signal Retention in Knee,[1]; 0.5 Hours,102.49
same,Peptide Signal Retention in IVD,[1]; 1 Hours,100.00
same,Peptide Signal Retention in Knee,[1]; 1 Hours,100.00
same,Peptide Signal Retention in IVD,[1]; 3 Hours,106.39
same,Peptide Signal Retention in Knee,[1]; 3 Hours,72.64
same,Peptide Signal Retention in IVD,[1]; 8 Hours,81.45
same,Peptide Signal Retention in Knee,[1]; 8 Hours,42.42
same,Peptide Signal Retention in IVD,[1]; 24 Hours,36.89
same,Peptide Signal Retention in Knee,[1]; 24 Hours,22.61
same,Peptide Signal Retention in IVD,[1]; 48 Hours,19.96
same,Peptide Signal Retention in Knee,[1]; 48 Hours,9.73
same,Peptide Signal Retention in IVD,[1]; 72 Hours,13.43
same,Peptide Signal Retention in Knee,[1]; 72 Hours,8.76
same,Peptide Signal Retention in IVD,[1]; 96 Hours,9.17
same,Peptide Signal Retention in Knee,[1]; 96 Hours,5.05
same,resistance to chemical reduction,[2],very little formation of a new peak
same,accumulation in other tissues of the body,"[3]; 400 nmol IV, 1, 3, 24 hrs, except liver and kidney",minimal accumulation
same,signal in cartilage (whole body autoradiography),"[3]; 400 nmol IV, 1 hr, 3 hrs, 24 hrs",signal can be detected
same,Immunostaining with anti-peptide(SEQ ID NO: 105) antibody in articular cartilage and growth plates of knee joint sections,[4],strong positive staining
"^14C-Cys-triamicinolone acetonide [^14C-Cys-TAA, reference compound]",signal in cartilage (whole body autoradiography),[5],no observable signal
